The subject of the assay is BDF1 mice, B16 melanoma ip, median survival T/C. Briefly: NCI In Vivo Anticancer Drug Screen. Data for tumor model B16 Melanoma (intraperitoneal) in B6D2F1 (BDF1) mice. To be noted: endpoint: median survival time, higher = longer survival. The procedure, abridged:
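Values are ratios of treated (T) to vehicle-control (C) measurements of survival or tumor size in tumor-bearing mice.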

[1] abbreviates: dose: 200.0 mg/kg/injection, schedule: Q01DX009 (ip), vehicle: Klucel (hydroxypropylcellulose) (HPC).
Setting [2] is: dose: 25.0 mg/kg/injection, schedule: Q01DX009 (ip), vehicle: Klucel (hydroxypropylcellulose) (HPC).
The mark [3] stands for this setting: dose: 50.0 mg/kg/injection, schedule: Q01DX009 (ip), vehicle: Klucel (hydroxypropylcellulose) (HPC).
[4] abbreviates: dose: 100.0 mg/kg/injection, schedule: Q01DX009 (ip), vehicle: saline with Tween-80.
The mark [5] stands for this setting: dose: 6.25 mg/kg/injection, schedule: Q01DX009 (ip), vehicle: saline.
[6] abbreviates: dose: 12.5 mg/kg/injection, schedule: Q01DX009 (ip), vehicle: saline.
The mark [7] stands for this setting: dose: 25.0 mg/kg/injection, schedule: Q01DX009 (ip), vehicle: saline.
Setting [8] is: dose: 50.0 mg/kg/injection, schedule: Q01DX009 (ip), vehicle: saline.
[9] abbreviates: dose: 100.0 mg/kg/injection, schedule: Q01DX009 (ip), vehicle: saline.
The mark [10] stands for this setting: dose: 12.5 mg/kg/injection, schedule: Q01DX009 (ip), vehicle: Klucel (hydroxypropylcellulose) (HPC).
Where [11] appears, read: dose: 100.0 mg/kg/injection, schedule: Q01DX009 (ip), vehicle: Klucel (hydroxypropylcellulose) (HPC).

Toxic doses and inconclusive results are not listed.

Regarding `CC[C@@]1(O)C(=O)OCc2c1cc1n(c2=O)Cc2cc3ccccc3nc2-1`, the T/C reads like this: (dose: 0.39 mg/kg/injection, schedule: Q01DX009 (ip), vehicle: other) 151 % of control; (dose: 0.79 mg/kg/injection, schedule: Q01DX009 (ip), vehicle: other) 189 % of control.

As for `O=C1CN=C(c2ccccc2Cl)c2cc(Cl)ccc2N1`, the T/C (dose: 0.01 mg/kg/injection, schedule: Q01DX009 (ip), vehicle: Klucel (hydroxypropylcellulose) (HPC)) was 100 % of control; the T/C (dose: 0.02 mg/kg/injection, schedule: Q01DX009 (ip), vehicle: Klucel (hydroxypropylcellulose) (HPC)) was 86 % of control; the T/C (dose: 0.04 mg/kg/injection, schedule: Q01DX009 (ip), vehicle: Klucel (hydroxypropylcellulose) (HPC)) was 86 % of control; the T/C (dose: 0.09 mg/kg/injection, schedule: Q01DX009 (ip), vehicle: Klucel (hydroxypropylcellulose) (HPC)) is 86 % of control; the T/C (dose: 0.39 mg/kg/injection, schedule: Q01DX009 (ip), vehicle: Klucel (hydroxypropylcellulose) (HPC)) was 91 % of control; the T/C (dose: 0.78 mg/kg/injection, schedule: Q01DX009 (ip), vehicle: Klucel (hydroxypropylcellulose) (HPC)) was 88 % of control. In addition, the T/C is 86 % of control (dose: 1.56 mg/kg/injection, schedule: Q01DX009 (ip), vehicle: Klucel (hydroxypropylcellulose) (HPC)); 89 % of control (dose: 3.12 mg/kg/injection, schedule: Q01DX009 (ip), vehicle: Klucel (hydroxypropylcellulose) (HPC)); 90 % of control under setting [1]; 111 % of control (dose: 0.6 micrograms/kg/injection, schedule: Q01DX009 (ip), vehicle: Klucel (hydroxypropylcellulose) (HPC)); 104 % of control (dose: 1.2 micrograms/kg/injection, schedule: Q01DX009 (ip), vehicle: Klucel (hydroxypropylcellulose) (HPC)); 105 % of control (dose: 2.5 micrograms/kg/injection, schedule: Q01DX009 (ip), vehicle: Klucel (hydroxypropylcellulose) (HPC)). Besides, the T/C is 95 % of control (dose: 5.0 micrograms/kg/injection, schedule: Q01DX009 (ip), vehicle: Klucel (hydroxypropylcellulose) (HPC)) and 112 % of control (dose: 10.0 micrograms/kg/injection, schedule: Q01DX009 (ip), vehicle: Klucel (hydroxypropylcellulose) (HPC)).

On to `S=c1[nH]nc(NC2CCCCC2)s1`, for which the T/C was 97 % of control under setting [2]; 91 % of control under setting [3]; 97 % of control (dose: 100.0 mg/kg/injection, schedule: Q04DX003 (ip), vehicle: Klucel (hydroxypropylcellulose) (HPC)); 91 % of control (dose: 200.0 mg/kg/injection, schedule: Q04DX003 (ip), vehicle: Klucel (hydroxypropylcellulose) (HPC)).

Consider `CCC(C)C1NC(=O)C(NC(=O)c2c3nc4c(C(=O)NC5C(=O)NC(C(C)CC)C(=O)N6CCCC6C(=O)N(C)CC(=O)N(C)C(C(C)C)C(=O)OC5C)cc([N+](=O)[O-])c(C)c4oc-3c(C)c(=O)c2N)C(C)OC(=O)C(C(C)C)N(C)C(=O)CN(C)C(=O)C2CCCN2C1=O` (stereo not drawn), for which the T/C is 110 % of control (dose: 25.0 micrograms/kg/injection, schedule: Q01DX009 (ip), vehicle: water); 119 % of control (dose: 50.0 micrograms/kg/injection, schedule: Q01DX009 (ip), vehicle: water); 124 % of control (dose: 100.0 micrograms/kg/injection, schedule: Q01DX009 (ip), vehicle: water); 160 % of control (dose: 400.0 micrograms/kg/injection, schedule: Q01DX009 (ip), vehicle: water).

With `CC(C)c1ccc(C(O)C2CC2)cc1` (stereo not drawn), the T/C (dose: 50.0 mg/kg/injection, schedule: Q01DX009 (ip), vehicle: saline with Tween-80) was 110 % of control and the T/C under setting [4] was 102 % of control.

As for `COc1nc(=O)n(C2C=CC(=O)O2)cc1F` (stereo not drawn), the T/C reads like this: under setting [5], 101 % of control; under setting [6], 95 % of control; under setting [7], 89 % of control; under setting [8], 87 % of control; under setting [9], 91 % of control.

Consider `CC1=CC(=O)C(CO)=CC1=O`, for which the T/C was 94 % of control (dose: 0.05 mg/kg/injection, schedule: Q01DX009 (ip), vehicle: saline with Tween-80); 103 % of control (dose: 0.1 mg/kg/injection, schedule: Q01DX009 (ip), vehicle: saline with Tween-80); 93 % of control (dose: 0.2 mg/kg/injection, schedule: Q01DX009 (ip), vehicle: saline with Tween-80); 93 % of control (dose: 0.38 mg/kg/injection, schedule: Q01DX009 (ip), vehicle: saline with Tween-80); 94 % of control (dose: 0.4 mg/kg/injection, schedule: Q01DX009 (ip), vehicle: saline with Tween-80).

Turning to `C=C1N(C)c2ccc(Cl)cc2C1(C)C`, the T/C by setting is: under setting [10], 90 % of control; under setting [2], 90 % of control; under setting [3], 88 % of control; under setting [11], 87 % of control.

`C1CC[N-]CC1.CC(=N\O)/C(C)=N/O.CC(=N\O)/C(C)=N/O.C[CH-]CC.[Co+2]`: the T/C under setting [2] was 102 % of control and the T/C under setting [3] is 108 % of control.

For `CCC1OC(=O)CC(O)C(C)C(OC2OC(C)CC(N(C)C)C2O)C(CC=O)CC(C)C(=O)/C=C/C2(C)OC2C1C` (stereo not drawn), the T/C runs as follows: under setting [3], 88 % of control; under setting [11], 92 % of control.

For `C[C@@H]1C(=O)C[C@H]2C(C)(C)CCC[C@]2(C)[C@@]1(O)CCc1ccoc1`, the T/C reads like this: under setting [2], 99 % of control; under setting [3], 89 % of control; under setting [11], 93 % of control; under setting [1], 86 % of control.

On to `C=CCOCC(O)CNCCCOC` (stereo not drawn), for which the T/C runs as follows: under setting [5], 102 % of control; under setting [6], 98 % of control; under setting [7], 98 % of control.

`Nc1c(S(=O)(=O)O)cc(Nc2ccccc2)c2c1C(=O)c1ccccc1C2=O`: the T/C runs as follows: under setting [7], 121 % of control; under setting [8], 115 % of control; under setting [9], 115 % of control.

As for `Cc1ccc([N+](=O)[O-])cc1NC(=O)Oc1ccc(Cl)cc1`, the T/C is 94 % of control (dose: 25.0 mg/kg/injection, schedule: Q04DX009 (ip), vehicle: Klucel (hydroxypropylcellulose) (HPC)); 104 % of control (dose: 50.0 mg/kg/injection, schedule: Q04DX009 (ip), vehicle: Klucel (hydroxypropylcellulose) (HPC)); 93 % of control (dose: 100.0 mg/kg/injection, schedule: Q04DX003 (ip), vehicle: carboxymethylcellulose (CMC)); 96 % of control (dose: 100.0 mg/kg/injection, schedule: Q04DX009 (ip), vehicle: Klucel (hydroxypropylcellulose) (HPC)); 86 % of control (dose: 400.0 mg/kg/injection, schedule: Q04DX003 (ip), vehicle: carboxymethylcellulose (CMC)).

As for `COc1c2ccoc2nc2c(OC)c3c(cc12)OCO3`, the T/C by setting is: (dose: 6.25 mg/kg/injection, schedule: Q01DX009 (ip), vehicle: Klucel (hydroxypropylcellulose) (HPC)) 89 % of control; under setting [10], 100 % of control; under setting [2], 95 % of control; under setting [3], 92 % of control.

On to `CC1(C)CC(C)(c2ccc(O)cc2)c2ccccc2O1` (stereo not drawn), for which the T/C by setting is: under setting [4], 100 % of control; (dose: 200.0 mg/kg/injection, schedule: Q01DX009 (ip), vehicle: saline with Tween-80) 86 % of control; (dose: 400.0 mg/kg/injection, schedule: Q01DX009 (ip), vehicle: saline with Tween-80) 86 % of control.

`COc1c(NC(=O)CC(C)=O)cccc1NC(=O)CC(C)=O`: the T/C reads like this: under setting [3], 120 % of control; under setting [11], 104 % of control; under setting [1], 97 % of control.

In the case of `N#Cc1nc2ccccc2nc1C#N`, the T/C is 110 % of control under setting [10]; 97 % of control (dose: 12.5 mg/kg/injection, schedule: Q04DX003 (ip), vehicle: Klucel (hydroxypropylcellulose) (HPC)); 102 % of control (dose: 25.0 mg/kg/injection, schedule: Q04DX003 (ip), vehicle: Klucel (hydroxypropylcellulose) (HPC)); 95 % of control (dose: 50.0 mg/kg/injection, schedule: Q04DX003 (ip), vehicle: Klucel (hydroxypropylcellulose) (HPC)).

For the compound `CC(=N/NC(N)=S)/C(C)=N/NC(N)=S`, the T/C is, setting by setting: under setting [9], 118 % of control; (dose: 200.0 mg/kg/injection, schedule: Q01DX009 (ip), vehicle: saline) 97 % of control.

`O=C(O)CCNCCO`: the T/C (dose: 400.0 mg/kg/injection, schedule: Q01DX009 (ip), vehicle: saline) is 97 % of control.

As to `Cn1nc(N)c2ncc(-c3ccc(Cl)cc3)nc21`, the T/C reads like this: (dose: 12.5 mg/kg/injection, schedule: Q01DX009 (ip), vehicle: saline with Tween-80) 91 % of control; (dose: 25.0 mg/kg/injection, schedule: Q01DX009 (ip), vehicle: saline with Tween-80) 90 % of control.

The record behind these values is PubChem BioAssay AID192 (DTP/NCI, 2004).
